ChEMBL document CHEMBL5729315, “Heterocyclylmethylidene derivatives and their use as modulators of mGluR5 receptors” (2022)

Tests used:
[1] = biological target: T1, Metabotropic glutamate receptor 5 (Homo sapiens, UniProt P41594); assay: Radioligand Binding Assay at Cloned Human mGluR5 Receptor Subtype: Affinity at transmembrane glutamate metabotropic cloned human mGluR5 receptor was evaluated according to the methods of Anderson (Anderson et al., J Pharmacol. Exp. Ther., (2002), Vol. 303(3), pp. 1044-51), with some modifications. Human cloned mGluR5 was obtained by re-suspending CHO T-REx h-mGluR5 cells (50 μg/well) in 20 mM HEPES, 2 mM MgCl2, 2 mM CaCl2, pH 7.4, that then were incubated in a final volume of 1 ml for 60 min at 25° C. with 4 nM [3H]MPEP in the absence or presence of competing drugs. Non-specific binding was determined in the presence of 10 μM MPEP. The incubation was stopped by addition of cold Tris buffer pH 7.4 and rapid filtration through 0.2% polyethyleneimine pretreated Filtermat 1204-401 (Perkin Elmer) filters. The filters were then washed with cold buffer and the radioactivity retained on the filters was counted by liquid scintillation spectrometry (Betaplate 1204 BS-Wallac).
[2] = biological target: T1, Metabotropic glutamate receptor 5; assay: Fold Shift of Agonist Curve Determination: The PAM potency was evaluated by performing an agonist concentration response curve in the presence of the compounds. The compounds at fixed concentration (0.01 or 0.1 or 1 μM) were applied 10 minutes before the incubation of the agonist (quisqualate or glutamate) dose-response curve. The fold shift was determined as ratio of EC50 agonist curves in presence and in absence of test compound.

T1 sequence (P41594 whole entry): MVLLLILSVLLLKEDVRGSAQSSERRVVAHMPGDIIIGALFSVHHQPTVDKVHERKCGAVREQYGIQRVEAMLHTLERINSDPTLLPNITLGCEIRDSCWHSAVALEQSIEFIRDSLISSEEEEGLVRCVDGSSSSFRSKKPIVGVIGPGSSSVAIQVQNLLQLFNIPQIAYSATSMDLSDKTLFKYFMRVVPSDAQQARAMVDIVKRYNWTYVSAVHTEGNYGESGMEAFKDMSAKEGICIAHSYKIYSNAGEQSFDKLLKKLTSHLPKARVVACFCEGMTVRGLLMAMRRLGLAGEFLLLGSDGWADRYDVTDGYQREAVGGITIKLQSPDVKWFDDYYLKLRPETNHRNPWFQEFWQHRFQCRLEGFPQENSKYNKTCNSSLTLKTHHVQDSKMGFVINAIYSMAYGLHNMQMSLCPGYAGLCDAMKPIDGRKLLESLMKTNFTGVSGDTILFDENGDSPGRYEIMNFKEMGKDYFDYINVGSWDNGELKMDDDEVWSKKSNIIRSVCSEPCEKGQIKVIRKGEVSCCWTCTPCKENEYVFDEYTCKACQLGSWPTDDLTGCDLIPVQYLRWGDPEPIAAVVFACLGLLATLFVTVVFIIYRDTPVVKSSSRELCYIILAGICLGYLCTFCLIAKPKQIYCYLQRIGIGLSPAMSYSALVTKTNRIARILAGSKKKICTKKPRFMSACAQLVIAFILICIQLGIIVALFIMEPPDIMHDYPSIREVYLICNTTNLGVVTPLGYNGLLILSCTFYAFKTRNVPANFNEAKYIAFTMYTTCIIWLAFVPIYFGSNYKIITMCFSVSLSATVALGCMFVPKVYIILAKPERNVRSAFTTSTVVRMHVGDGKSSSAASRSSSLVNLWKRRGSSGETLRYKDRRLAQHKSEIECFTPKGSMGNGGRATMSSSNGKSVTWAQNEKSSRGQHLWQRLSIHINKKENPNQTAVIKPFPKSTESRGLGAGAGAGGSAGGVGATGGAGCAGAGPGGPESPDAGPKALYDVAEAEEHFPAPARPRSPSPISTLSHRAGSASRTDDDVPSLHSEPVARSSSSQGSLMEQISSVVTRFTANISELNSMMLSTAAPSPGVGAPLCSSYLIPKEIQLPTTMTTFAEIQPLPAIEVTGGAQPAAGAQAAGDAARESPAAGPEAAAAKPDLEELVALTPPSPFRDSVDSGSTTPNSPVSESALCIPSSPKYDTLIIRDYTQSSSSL

SMILES | Ki [1] | EC50 [2]
Cc1cccc(C#CC=C2CC(C)(C)NC(C)(C)C2)n1 | 26.9 nM | 
COc1cc(OC)nc(C(=O)N2CC/C(=C\C#Cc3cccc(Cl)c3)C(C)(C)C2)n1 | 2.24 nM | 51.7 nM
